Test results from patent US10357492B2, “Levosimendan for use in the treatment of motor neuron diseases (E.G. ALS)” (Orion Corporation, priority 2014, dated 2019).

What was measured:
[1] = tested on: Antibody Induced Myasthenia Gravis Model in Female Lewis Rats; experiment: accelerated rotating rod test (Rotarod) in antibody induced myasthenia gravis model; type: in vivo; conditions: single oral dosage on day 2 (48 h after antibody); levosimendan 0.25 mg/kg, active metabolite (II) 0.025 mg/kg; measured 0.5 h, 1 h, 2 h after treatment; FIG. 1
Experimental: (§1) The effects of levosimendan and its active metabolite (II) on skeletal muscle weakness were studied in an experimental model of Myasthenia Gravis (Russell A J et al., Nat Med 18 (3), 2012, 452-5). Myasthenia Gravis was induced in female Lewis rats by injecting 500 μg/kg of nAChRα1/3/5 antibody (SC-58604, Santa Cruz Biotechnology) intraperitoneally on day 0. Animals with 40-70% drop in muscle strength from baseline at 48 h after administration of the antibody were randomized into treatment groups: 1) Vehicle control (n=6) (0.5% Methocel 5 ml/kg orally), 2) Levosimendan (n=6) (0.25 mg/kg orally), 3) Active metabolite (II) (n=6) (0.025 mg/kg orally).
Coordination, balance, and motor skill acquisition were tested using an accelerated rotating rod test (Rotarod, Ugo Basile, Comerio, Italy). Rats were placed on a rod that accelerated smoothly from 4 to 40 rpm over a period of 5 min. The length of time that each animal was able to stay on the rod was recorded. Three consecutive measurements were performed. Rats were trained for the test four times one day before and twice on the day of antibody injection. Effects of different drug treatments on Rotarod response were measured 0.5 h, 1 h, and 2 h after oral treatment on day 2, i.e. 48 hours after the induction of Myasthenia Gravis.

[2] = tested on: Antibody Induced Myasthenia Gravis Model in Female Lewis Rats; experiment: treadmill exercise capacity test in antibody induced myasthenia gravis model; type: in vivo; conditions: 2 h post-dosing of repeated oral dosage on day 3 (72 h after antibody); levosimendan 0.25 mg/kg, active metabolite (II) 0.025 mg/kg; FIG. 2
Experimental: as §1
Exercise capacity measurements were performed with airtight treadmill (Accupacer treadmill, Accuscan Instruments, USA) connected to a respiratory gas analysing system. Rehearsals and exercise capacity measurements were started with familiarising the rats with the treadmill chambers for 15 minutes (restmill). The exercise program consisted of 15 min running at 10 m/min until the rat was incapable to keep up the speed despite of electric shock motivation. Rats were trained for the test three times one day before and twice on the day of antibody injection. Effects of different drug treatments on treadmill responses were measured 1 h and 2 h after oral treatment on day 3 (72 h after induction of Myasthenia Gravis).

[3] = pharmacokinetics (half-life); conditions: rat, in vivo; "in rats" printed for the active metabolite (II) only; read-out: t½ (converted)

Row | half-life [3] | SMILES | effect on muscle function in Rotarod test (time able to stay on the rotating rod) [1] | effect on skeletal muscle function in treadmill test (exercise duration) [2]
1 | 0.7 h | CC1CC(=O)NN=C1c1ccc(NN=C(C#N)C#N)cc1 (single isomer, unassigned) [Levosimendan, [[4-(1,4,5,6-tetrahydro-4-methyl-6-oxo-3-pyridazinyl)phenyl]hydrazono]propanedinitrile] | acute and transient improvement in muscle function | positive effect
2 | 5 h | CC(=O)Nc1ccc(C2=NNC(=O)C[C@H]2C)cc1 [active metabolite (II), (R)—N-[4-(1,4,5,6-tetrahydro-4-methyl-6-oxo-3-pyridazinyl)phenyl]-acetamide] | acute and transient improvement in muscle function | positive effect
